According to patent publication US20220056019A1, “FARNESOID X RECEPTOR AGONISTS AND USES THEREOF” (Metacrine, Inc., priority 2018, published 2022):

Target: T1, hFXR (Homo sapiens, UniProt Q96RI1)
T1 construct: expressed in transfected cells; host or cells: CV-1 cells
T1 sequence (Q96RI1 1-486): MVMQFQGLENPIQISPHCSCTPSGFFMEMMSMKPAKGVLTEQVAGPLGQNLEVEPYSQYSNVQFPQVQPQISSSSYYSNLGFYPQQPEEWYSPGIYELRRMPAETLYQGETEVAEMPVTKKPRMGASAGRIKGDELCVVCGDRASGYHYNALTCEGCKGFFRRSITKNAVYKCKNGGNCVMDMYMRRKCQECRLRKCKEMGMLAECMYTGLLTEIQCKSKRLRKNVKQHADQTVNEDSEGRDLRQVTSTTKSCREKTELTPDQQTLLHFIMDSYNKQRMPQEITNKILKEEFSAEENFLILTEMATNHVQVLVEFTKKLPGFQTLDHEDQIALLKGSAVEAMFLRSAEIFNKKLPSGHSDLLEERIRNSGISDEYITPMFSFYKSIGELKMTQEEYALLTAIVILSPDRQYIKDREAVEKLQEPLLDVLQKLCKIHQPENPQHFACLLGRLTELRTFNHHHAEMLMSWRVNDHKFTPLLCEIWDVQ
T1 sequence (P19793 1-462 partner): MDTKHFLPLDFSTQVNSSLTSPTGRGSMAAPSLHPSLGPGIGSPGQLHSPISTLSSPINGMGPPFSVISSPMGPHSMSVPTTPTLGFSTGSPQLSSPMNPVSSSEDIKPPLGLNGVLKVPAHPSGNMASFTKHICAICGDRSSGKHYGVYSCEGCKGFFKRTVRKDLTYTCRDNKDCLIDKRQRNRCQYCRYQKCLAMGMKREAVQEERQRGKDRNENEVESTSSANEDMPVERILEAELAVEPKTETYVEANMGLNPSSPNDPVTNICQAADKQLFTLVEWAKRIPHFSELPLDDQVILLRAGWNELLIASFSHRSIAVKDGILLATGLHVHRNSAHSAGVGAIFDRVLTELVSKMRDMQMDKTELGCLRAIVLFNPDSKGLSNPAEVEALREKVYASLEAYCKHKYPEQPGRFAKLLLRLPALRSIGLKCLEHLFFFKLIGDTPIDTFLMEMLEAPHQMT
Assay: In Vitro FXR Assay (TK): TK-ECRE-luc reporter in transfected CV-1 cells
Format: cell-based
Conditions: 18 hrs incubation, luminescence
Summary of the method: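 CV-1 cells transiently cotransfected with hFXR, hRXR, TK-ECRE-luc reporter and pCMX-YFP plasmids in charcoal-stripped serum medium. Serially diluted compounds added for 18 h at 37° C., then cells lysed and luciferase luminescence measured.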

EC50 [nM]	Compound
≤ 50	COc1ccc(C23CCC(CN(c4ccc(F)c(-c5cnn(C(C)C)c5)c4)C(=O)[C@H]4CC[C@H](OC(=O)N5CC(C#N)C5)CC4)(CC2)CC3)cc1C [Compound 25.11, 4-((4-Fluoro-3-(1-isopropyl-1H-pyrazol-4-yl)phenyl)((4-(4-methoxy-3-methylphenyl)bicyclo[2.2.2]octan-1-yl)methyl)carbamoyl)cyclohexyl trans-3-cyanoazetidine-1-carboxylate]
≤ 50	COc1ccc(C23CCC(CN(c4cc(-c5cnn(C(C)C)c5)ccn4)C(=O)[C@H]4CC[C@H](OC(=O)N5CC(O)C5)CC4)(CC2)CC3)cc1F [Compound 26.08, 4-(((4-(3-Fluoro-4-methoxyphenyl)bicyclo[2.2.2]octan-1-yl)methyl)(4-(1-isopropyl-1H-pyrazol-4-yl)pyridin-2-yl)carbamoyl)cyclohexyl trans-3-hydroxyazetidine-1-carboxylate]
≤ 50	COc1ccc(C23CCC(CN(c4cc(-c5cnn(C(C)C(F)(F)F)c5)ccn4)C(=O)[C@H]4CC[C@H](OC(=O)N5CC(O)C5)CC4)(CC2)CC3)cc1C (stereo partly drawn) [Compound 26.11, 4-(((4-(4-Methoxy-3-methylphenyl)bicyclo[2.2.2]octan-1-yl)methyl)(4-(1-(1,1,1-trifluoropropan-2-yl)-1H-pyrazol-4-yl)pyridin-2-yl)carbamoyl)cyclohexyl trans-3-hydroxyazetidine-1-carboxylate]
≤ 50	COc1ccc(C23CCC(CN(c4ccc(Cl)c(-c5cnn(C(C)C)c5)c4)C(=O)[C@H]4CC[C@H](OC(=O)N5CC(O)C5)CC4)(CC2)CC3)cc1C [Compound 26.04, 4-((4-Chloro-3-(1-isopropyl-1H-pyrazol-4-yl)phenyl)((4-(4-methoxy-3-methylphenyl)bicyclo[2.2.2]octan-1-yl)methyl)carbamoyl)(trans-cyclohexyl) 3-hydroxyazetidine-1-carboxylate]
≤ 50	CC(C)n1cc(-c2ccnc(N(CC34CCC(C5CCCCC5)(CC3)CC4)C(=O)[C@H]3CC[C@H](OC(=O)N4CC(O)C4)CC3)c2)cn1 [Compound 26.15, 4-(((4-Cyclohexylbicyclo[2.2.2]octan-1-yl)methyl)(4-(1-isopropyl-1H-pyrazol-4-yl)pyridin-2-yl)carbamoyl)cyclohexyl trans-3-hydroxyazetidine-1-carboxylate]
≤ 50	COc1ccc(C23CCC(CN(c4cc(-c5cnn(C(C)C)c5)ccc4F)C(=O)[C@H]4CC[C@H](OC(=O)N5CC(O)C5)CC4)(CC2)CC3)cc1C [Compound 25.03, 4-((2-Fluoro-5-(1-isopropyl-1H-pyrazol-4-yl)phenyl)((4-(4-methoxy-3-methylphenyl)bicyclo[2.2.2]octan-1-yl)methyl)carbamoyl)cyclohexyl trans-3-hydroxyazetidine-1-carboxylate]
≤ 50	COc1ccc(C23CCC(CN(c4cccc(-c5cnn(C(C)C)c5)c4)C(=O)[C@H]4CC[C@H](OC(=O)N5CC(O)C5)CC4)(CC2)CC3)cc1C [Compound 25.02, 4-((3-(1-Isopropyl-1H-pyrazol-4-yl)phenyl)((4-(4-methoxy-3-methylphenyl)bicyclo[2.2.2]octan-1-yl)methyl)carbamoyl)cyclohexyl trans-3-hydroxyazetidine-1-carboxylate]
≤ 50	COc1ccc(C23CCC(CN(c4cc(-c5cnn(C6(C)CCC6)c5)ncn4)C(=O)[C@H]4CC[C@H](OC(=O)N5CC(O)C5)CC4)(CC2)CC3)cc1C [Compound 25.26, 4-(((4-(4-Methoxy-3-methylphenyl)bicyclo[2.2.2]octan-1-yl)methyl)(6-(1-(1-methylcyclobutyl)-1H-pyrazol-4-yl)pyrimidin-4-yl)carbamoyl)cyclohexyl trans-3-hydroxyazetidine-1-carboxylate]

More lines, now with the values behind:

Compound	EC50 [nM]
COc1ccc(C23CCC(CN(c4cc(-c5cnc(C6CC6)s5)ccn4)C(=O)[C@H]4CC[C@H](OC(=O)N5CC(CO)C5)CC4)(CC2)CC3)cc1C [Compound 4.28, 4-((4-(2-Cyclopropylthiazol-5-yl)pyridin-2-yl)((4-(4-methoxy-3-methylphenyl)bicyclo[2.2.2]octan-1-yl)methyl)carbamoyl)(trans-cyclohexyl) 3-(hydroxymethyl)azetidine-1-carboxylate]	≤ 50
COc1ccc([C@H]2CC[C@H](CN(c3cccc(-c4cnn(C(C)C)c4)c3)C(=O)[C@H]3CC[C@H](OC(=O)NCC(C)(C)O)CC3)CC2)cc1C [Compound 5.12, trans-4-((3-(1-Isopropyl-1H-pyrazol-4-yl)phenyl)((trans-4-(4-methoxy-3-methylphenyl)cyclohexyl)methyl)carbamoyl)cyclohexyl (2-hydroxy-2-methylpropyl)carbamate]	≤ 50
COc1ccc(C23CCC(CN(c4cc(-c5cnn(C6CCCC6)c5)ccn4)C(=O)[C@H]4CC[C@H](OC(=O)N5CC(O)C5)CC4)(CC2)CC3)cc1C [Compound 23.07, 4-((4-(1-Cyclopentyl-1H-pyrazol-4-yl)pyridin-2-yl)((4-(4-methoxy-3-methylphenyl)bicyclo[2.2.2]oc-tan-1-yl)methyl)carbamoyl)(trans-cyclohexyl) 3-hydroxy-azetidine-1-carboxylate]	≤ 50
COC(=O)N[C@H]1CC[C@H](C(=O)N(CC23CCC(c4ccc(OC)c(C)c4)(CC2)CC3)c2cc(-c3cnn(C(C)C)c3)ccn2)CC1 [Compound 8, Methyl trans-(4-((4-(1-isopropyl-1H-pyrazol-4-yl)pyridin-2-yl)((4-(4-methoxy-3-methylphenyl)bicyclo[2.2.2]octan-1-yl)methyl)carbamoyl)cyclohexyl)carbamate]	≤ 50
COc1ccc([C@H]2CC[C@H](CN(c3cc(-c4cnc(C5CC5)s4)ccn3)C(=O)[C@H]3CC[C@H](OC(=O)NC(C)C)CC3)CC2)cc1C [Compound 2.45, trans-4-((4-(2-Cyclopropylthiazol-5-yl)pyridin-2-yl)(((trans)-4-(4-methoxy-3-methylphenyl)cyclohexyl)methyl)carbamoyl)cyclohexyl isopropylcarbamate]	≤ 50
COc1ccc([C@H]2CC[C@H](CN(c3cc(-c4cnc(C5CC5)s4)ccn3)C(=O)[C@H]3CC[C@H](OC(=O)NCC(C)(C)O)CC3)CC2)cc1C [Compound 2, trans-4-((4-(2-Cyclopropylthiazol-5-yl)pyridin-2-yl)(((trans)-4-(4-methoxy-3-methylphenyl)cyclohexyl)methyl)carbamoyl)cyclohexyl (2-hydroxy-2-methylpropyl)carbamate]	≤ 50
CCc1nc(-c2ccnc(N(CC34CCC(c5ccc(OC)c(C)c5)(CC3)CC4)C(=O)[C@H]3CC[C@H](OC(=O)N4CC(O)C4)CC3)c2)co1 [Compound 4.22, 4-((4-(2-Ethyloxazol-4-yl)pyridin-2-yl)((4-(4-methoxy-3-methylphenyl)bicyclo[2.2.2]octan-1-yl)methyl)carbamoyl) cyclohexyl 3-hydroxyazetidine-trans-1-carboxylate]	≤ 50
COc1ccc(C23CCC(CN(c4cc(-c5cnn(C6CCC6)c5)ccn4)C(=O)[C@H]4CC[C@H](OC(=O)N5CC(CO)C5)CC4)(CC2)CC3)cc1C [Compound 23.10, 4-((4-(1-Cyclobutyl-1H-pyrazol-4-yl)pyridin-2-yl)((4-(4-methoxy-3-methylphenyl)bicyclo[2.2.2]octan-1-yl)methyl)carbamoyl)(trans-cyclohexyl) 3-(hydroxymethyl)azetidine-1-carboxylate]	≤ 50
COc1ccc([C@H]2CC[C@H](CN(c3cc(-c4cnn(C(C)C)c4)ccn3)C(=O)[C@H]3CC[C@H](OC(=O)NC[C@H](F)CF)CC3)CC2)cc1C [Compound 2.33, trans-4-((4-(1-Isopropyl-1H-pyrazol-4-yl)pyridin-2-yl)(((trans)-4-(4-methoxy-3-methylphenyl)cyclohexyl)methyl)carbamoyl) cyclohexyl((S)-2,3-difluoropropyl) carbamate]	≤ 50
COc1ccc([C@H]2CC[C@H](CN(c3cc(-c4cnn(C(C)C)c4)ccn3)C(=O)[C@H]3CC[C@H](OC(=O)NCCC(C)(C)O)CC3)CC2)cc1C [Compound 2.21, trans-4-((4-(1-Isopropyl-1H-pyrazol-4-yl)pyridin-2-yl) ((trans-4-(4-methoxy-3-methylphenyl)cyclohexyl)methyl)carbamoyl) cyclohexyl(3-hydroxy-3-methylbutyl)carbamate]	≤ 50
COc1ccc([C@H]2CC[C@H](CN(c3cc(-c4coc(C5CC5)n4)ccn3)C(=O)[C@H]3CC[C@H](OC(=O)NCC(C)(C)O)CC3)CC2)cc1C [Compound 2.02, trans-4-((4-(2-Cyclopropyloxazol-4-yl)pyridin-2-yl)((trans-4-(4-methoxy-3-methylphenyl)cyclohexyl)methyl)carbamoyl) cyclohexyl(2-hydroxy-2-methylpropyl)carbamate]	≤ 50
